According to article PMC4859410 (Pharmacogenetics and genomics, 2010):

Experiments:
Format in all cases: in vitro ADME
OATP1A2 = molecular target: T1, OATP1A2 (Homo sapiens, UniProt P46721); experiment: Drug uptake in X. laevis oocytes injected with SLCO1A2; conditions: for Drug uptake, OATP1A2: OATP1A2 cRNA injected oocytes; for Drug uptake, OATP1A2 / Drug uptake, Water: 1 µM (darunavir 3 µM), 18°C, 1hr, mean ± SD; for Drug uptake, Water: water injected control oocytes (Table 1); for Accumulation in SLCO1A2 cRNA injected oocytes compared to water injected control oocytes (in words): in the presence and in the absence of 2% HSA; for Ratio (fold increase in OATP1A2 cRNA injected oocytes compared to water injected oocytes): * = P < 0.05
T1 sequence (P46721 1-670): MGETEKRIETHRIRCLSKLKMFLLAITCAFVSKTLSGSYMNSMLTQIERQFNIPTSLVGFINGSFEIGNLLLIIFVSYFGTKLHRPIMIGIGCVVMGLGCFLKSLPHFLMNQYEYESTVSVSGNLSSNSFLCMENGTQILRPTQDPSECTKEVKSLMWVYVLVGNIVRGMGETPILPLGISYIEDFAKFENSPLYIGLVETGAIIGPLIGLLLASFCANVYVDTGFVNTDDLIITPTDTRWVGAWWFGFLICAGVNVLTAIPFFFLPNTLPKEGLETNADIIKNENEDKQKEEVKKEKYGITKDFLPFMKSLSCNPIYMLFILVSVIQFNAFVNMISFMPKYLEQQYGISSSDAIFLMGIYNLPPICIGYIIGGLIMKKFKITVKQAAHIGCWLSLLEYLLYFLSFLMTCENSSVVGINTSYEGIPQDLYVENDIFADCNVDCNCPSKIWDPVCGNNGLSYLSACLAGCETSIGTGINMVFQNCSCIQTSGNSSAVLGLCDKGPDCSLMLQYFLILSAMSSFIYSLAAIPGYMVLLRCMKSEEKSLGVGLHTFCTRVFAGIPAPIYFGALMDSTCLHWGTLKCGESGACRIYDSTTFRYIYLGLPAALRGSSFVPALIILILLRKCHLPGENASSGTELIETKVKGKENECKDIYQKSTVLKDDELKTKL

OATP1B1 = molecular target: T2, OATP1B1 (Homo sapiens, UniProt Q9Y6L6); experiment: Drug uptake in X. laevis oocytes injected with SLCO1B1; conditions: for Drug uptake, OATP1B1: OATP1B1 cRNA injected oocytes; for Drug uptake, OATP1B1 / Drug uptake, Water: 1 µM (darunavir 3 µM), 18°C, 1hr, mean ± SD; for Drug uptake, Water: water injected control oocytes (Table 2); for Accumulation in SLCO1B1 cRNA injected oocytes compared to water injected control oocytes (in words): in the presence and in the absence of 2% HSA; for Ratio (fold increase in OATP1B1 cRNA injected oocytes compared to water injected oocytes): * = P < 0.05
T2 sequence (Q9Y6L6 1-691): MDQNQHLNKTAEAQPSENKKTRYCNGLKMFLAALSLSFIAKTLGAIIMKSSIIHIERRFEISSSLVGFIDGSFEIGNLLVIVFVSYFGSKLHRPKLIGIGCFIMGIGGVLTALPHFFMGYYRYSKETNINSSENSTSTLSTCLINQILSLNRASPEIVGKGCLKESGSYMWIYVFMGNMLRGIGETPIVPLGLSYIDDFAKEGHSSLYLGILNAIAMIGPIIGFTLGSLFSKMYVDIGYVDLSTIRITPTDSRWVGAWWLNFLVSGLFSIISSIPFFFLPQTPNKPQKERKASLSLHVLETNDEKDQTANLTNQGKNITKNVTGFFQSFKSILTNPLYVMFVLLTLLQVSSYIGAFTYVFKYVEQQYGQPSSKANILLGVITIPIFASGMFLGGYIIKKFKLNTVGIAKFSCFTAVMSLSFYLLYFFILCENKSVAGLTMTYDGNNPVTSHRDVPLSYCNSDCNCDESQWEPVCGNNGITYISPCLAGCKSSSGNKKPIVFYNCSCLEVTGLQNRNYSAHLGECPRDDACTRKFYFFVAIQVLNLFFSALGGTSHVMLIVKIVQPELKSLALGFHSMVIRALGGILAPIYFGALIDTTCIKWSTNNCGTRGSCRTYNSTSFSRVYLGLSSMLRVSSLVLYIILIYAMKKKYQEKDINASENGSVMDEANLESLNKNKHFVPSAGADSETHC

OATP1B3 = molecular target: T3, OATP1B3 (Homo sapiens, UniProt Q9NPD5); experiment: Drug uptake in X. laevis oocytes injected with SLCO1B3; conditions: without human serum albumin; for Drug uptake, OATP1B3: OATP1B3 cRNA injected oocytes; for Drug uptake, OATP1B3 / Drug uptake, Water: 1 µM (darunavir 3 µM, performed once), 18°C, 1hr, mean ± SD; for Drug uptake, Water: water injected control oocytes (Table 3); for Ratio (fold increase in OATP1B3 cRNA injected oocytes compared to water injected oocytes): * = P < 0.05
T3 sequence (Q9NPD5 1-702): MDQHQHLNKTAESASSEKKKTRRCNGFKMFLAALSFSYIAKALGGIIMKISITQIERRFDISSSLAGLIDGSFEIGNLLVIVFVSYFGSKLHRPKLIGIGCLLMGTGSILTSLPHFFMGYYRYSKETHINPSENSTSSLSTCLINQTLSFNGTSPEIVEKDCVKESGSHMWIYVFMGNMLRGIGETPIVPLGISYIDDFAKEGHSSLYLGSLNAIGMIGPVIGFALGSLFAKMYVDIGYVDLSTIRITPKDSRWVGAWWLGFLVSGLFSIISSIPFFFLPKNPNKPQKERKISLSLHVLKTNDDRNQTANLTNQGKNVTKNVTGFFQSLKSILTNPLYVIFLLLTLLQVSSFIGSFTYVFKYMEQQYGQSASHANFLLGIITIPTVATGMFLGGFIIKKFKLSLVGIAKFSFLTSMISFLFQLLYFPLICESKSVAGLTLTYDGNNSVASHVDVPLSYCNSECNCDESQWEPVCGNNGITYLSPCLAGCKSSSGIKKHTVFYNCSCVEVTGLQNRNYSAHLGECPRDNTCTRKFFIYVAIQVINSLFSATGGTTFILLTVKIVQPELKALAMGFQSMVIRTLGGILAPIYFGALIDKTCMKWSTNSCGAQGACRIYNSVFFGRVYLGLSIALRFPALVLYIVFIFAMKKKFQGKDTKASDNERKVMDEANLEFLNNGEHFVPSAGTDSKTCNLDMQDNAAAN

SMILES | Drug uptake, OATP1A2 (OATP1A2; with 2% human serum albumin) | Drug uptake, OATP1A2 (OATP1A2; without human serum albumin) | Drug uptake, Water (OATP1A2; with 2% human serum albumin) | Drug uptake, Water (OATP1A2; without human serum albumin) | Drug uptake, OATP1B1 (OATP1B1; with 2% human serum albumin) | Drug uptake, OATP1B1 (OATP1B1; without human serum albumin) | Drug uptake, Water (OATP1B1; with 2% human serum albumin) | Drug uptake, Water (OATP1B1; without human serum albumin) | Drug uptake, OATP1B3 (OATP1B3) | Drug uptake, Water (OATP1B3) | Accumulation in SLCO1A2 cRNA injected oocytes compared to water injected control oocytes (in words) (OATP1A2) | Ratio (fold increase in OATP1A2 cRNA injected oocytes compared to water injected oocytes) (OATP1A2; with 2% human serum albumin) | Ratio (fold increase in OATP1A2 cRNA injected oocytes compared to water injected oocytes) (OATP1A2; without human serum albumin) | Accumulation in SLCO1B1 cRNA injected oocytes compared to water injected control oocytes (in words) (OATP1B1) | Ratio (fold increase in OATP1B1 cRNA injected oocytes compared to water injected oocytes) (OATP1B1; with 2% human serum albumin) | Ratio (fold increase in OATP1B1 cRNA injected oocytes compared to water injected oocytes) (OATP1B1; without human serum albumin) | Accumulation in SLCO1B3 cRNA injected oocytes compared to water injected control (in words) (OATP1B3) | Ratio (fold increase in OATP1B3 cRNA injected oocytes compared to water injected oocytes) (OATP1B3)
CC(C)CN(C[C@@H](O)[C@H](Cc1ccccc1)NC(=O)O[C@H]1CO[C@H]2OCC[C@H]21)S(=O)(=O)c1ccc(N)cc1 [Darunavir, darunavir] | 2.56 ± 0.78 pmol/oocyte | 4.32 ± 0.75 pmol/oocyte | 0.96 ± 0.37 pmol/oocyte | 2.18 ± 0.40 pmol/oocyte | 2.14 ± 0.82 pmol/oocyte | 4.13 ± 0.40 pmol/oocyte | 0.72 ± 0.18 pmol/oocyte | 2.12 ± 0.55 pmol/oocyte | 5.41 pmol/oocyte | 3.29 pmol/oocyte | – | – | – | – | – | – | – | –
O=C1Nc2ccc(Cl)cc2[C@@](C#CC2CC2)(C(F)(F)F)O1 [Efavirenz, efavirenz] | 1.63 ± 0.24 pmol/oocyte | 10.3 ± 2.90 pmol/oocyte | 1.47 ± 0.28 pmol/oocyte | 12.6 ± 2.49 pmol/oocyte | 1.51 ± 0.12 pmol/oocyte | 16.0 ± 4.17 pmol/oocyte | 1.46 ± 0.21 pmol/oocyte | 15.9 ± 1.70 pmol/oocyte | 18.21 ± 6.21 pmol/oocyte | 16.56 ± 6.84 pmol/oocyte | No significant increase | 1.11 | 0.81 | No significant increase | 1.03 | 1.00 | No significant increase | 1.10
Cc1ccnc2c1NC(=O)c1cccnc1N2C1CC1 [Nevirapine, nevirapine] | 2.17 ± 0.26 pmol/oocyte | 2.92 ± 0.59 pmol/oocyte | 2.23 ± 0.93 pmol/oocyte | 2.65 ± 0.54 pmol/oocyte | 2.01 ± 0.40 pmol/oocyte | 2.26 ± 0.20 pmol/oocyte | 1.80 ± 0.46 pmol/oocyte | 2.14 ± 0.22 pmol/oocyte | 3.12 ± 0.47 pmol/oocyte | 2.98 ± 0.59 pmol/oocyte | No significant increase | 0.97 | 1.10 | No significant increase | 1.12 | 1.06 | No significant increase | 1.05
C[C@]12CC[C@@H]3c4ccc(OS(=O)(=O)O)cc4CC[C@H]3[C@@H]1CCC2=O [estrone-3-sulphate] | 0.35 ± 0.15 pmol/oocyte | 2.02 ± 0.52 pmol/oocyte | 0.10 ± 0.03 pmol/oocyte | 0.19 ± 0.05 pmol/oocyte | 0.15 ± 0.03 pmol/oocyte | 0.51 ± 0.17 pmol/oocyte | 0.08 ± 0.03 pmol/oocyte | 0.16 ± 0.04 pmol/oocyte | 0.50 ± 0.20 pmol/oocyte | 0.21 ± 0.01 pmol/oocyte | significant increase in accumulation | 3.55 * | 10.9 * | significant increase in accumulation | 1.90 * | 3.21 * | trend towards increased accumulation | –
